Source: PubChem BioAssay (NCI)
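Abbreviation: GI50, concentration required for 50% inhibition of growth. The concentration for full growth arrest is given as TGI.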

Assays:
Experiment in all cases: DTP human tumour cell line panel, 384-well format
[1] = system: A498 renal
[2] = system: A549 NSCLC
[3] = system: CCRF-CEM leukemia
[4] = system: HCC-2998 colon
[5] = system: HS 578T breast
[6] = system: MDA-MB-231 breast
[7] = system: NCI-H322M lung
[8] = system: OVCAR-3 ovarian
[9] = system: OVCAR-8 ovarian
[10] = system: PC-3 prostate
[11] = system: RXF 393 renal
[12] = system: SK-MEL-28 melanoma
[13] = system: U251 glioblastoma

## O=C(/C=C/c1cccc(S(=O)(=O)Nc2ccccc2)c1)NO
[1]
  GI50: 494 nM
  TGI: 1450 nM
[2]
  GI50: 422 nM
  TGI: 1590 nM
[3]
  GI50: 134 nM
  TGI: 263 nM
[4]
  GI50: 490 nM
  TGI: 1220 nM
[5]
  GI50: 474 nM
  TGI: 1600 nM
[6]
  GI50: 249 nM
  TGI: 575 nM
[7]
  GI50: 465 nM
  TGI: 1840 nM
[8]
  GI50: 299 nM
  TGI: 1280 nM
[9]
  GI50: 225 nM
  TGI: 985 nM
[10]
  GI50: 433 nM
  TGI: 1760 nM
[11]
  GI50: 87.7 nM
  TGI: 365 nM
[12]
  GI50: 565 nM
  TGI: 1890 nM
[13]
  GI50: 430 nM
  TGI: 1340 nM
